The NIST ThermoML archive (doi:10.1021/je400781b)

Assay: xn = mol fraction of the nth substance listed
Details: 101 kPa, Liquid; for speed of sound: Frequency=2.75 MHz, Pulse-echo method; for mass density: Vibrating tube method

CCCC[n+]1ccn(C)c1.O=S(=O)([N-]S(=O)(=O)C(F)(F)F)C(F)(F)F + CC#N
Details	mass density, 293.15 K [kg/m3]	mass density, 298.15 K [kg/m3]	mass density, 303.15 K [kg/m3]	mass density, 308.15 K [kg/m3]	mass density, 313.15 K [kg/m3]	speed of sound, 293.15 K [m/s]	speed of sound, 298.15 K [m/s]	speed of sound, 303.15 K [m/s]	speed of sound, 308.15 K [m/s]	speed of sound, 313.15 K [m/s]
x1 = 0.0506	936.84	931.39	925.93	920.45	914.95	1259.9	1241.7	1223.7	1205.7	1187.9
x1 = 0.1242	1078.45	1073.07	1067.67	1062.27	1056.87	1241	1224.8	1208.7	1192.7	1176.8
x1 = 0.2041	1175.48	1170.19	1164.9	1159.61	1154.32	1235	1220.1	1205.3	1190.6	1176
x1 = 0.341	1275.66	1270.52	1265.38	1260.25	1255.12	1234	1220.4	1206.9	1193.5	1180.3
x1 = 0.5016	1343.88	1338.86	1333.85	1328.85	1323.86	1235.1	1222.4	1209.9	1197.5	1185.2
x1 = 0.6525	1384.46	1379.53	1374.6	1369.69	1364.79	1236.2	1224.1	1212.1	1200.3	1188.6
x1 = 0.7861	1410.16	1405.28	1400.42	1395.58	1390.74	1237.1	1225.4	1213.8	1202.4	1191
x1 = 0.9575	1434.22	1429.41	1424.61	1419.83	1415.06	1237.9	1226.6	1215.4	1204.3	1193.4
x1 = 1	1439.23	1434.44	1429.65	1424.88	1420.12	1237.9	1226.7	1215.6	1204.6	1193.7
